Patent US20140161720A1, “TREATMENT OF ANGIOGENIC- OR VASCULAR-ASSOCIATED DISEASES” (THE GENERAL HOSPITAL CORPORATION, priority 2011, published 2014)

Tests used:
[1] = tested on: orthotopic E0771 mammary tumors; assay: Tumor growth delay study, E0771; assay type: in vivo, female SCID mice; conditions: start ~100 mm^3, 37.5 mg/kg daily i.p.
Protocol: To assess the anti-tumor effects of DAL, female SCID mice bearing orthotopic 4T1 or E0771 mammary tumors were treated with daily i.p. injections of 37.5 mg/kg DAL or saline. In order to calculate tumor volumes, the major and minor axis diameters were measured with calipers and the tumor volume was calculated by assuming a spherical shape based on the average of these two dimensions. The tumors were implanted in the mammary fat pad and allowed to grow to a starting size (small ˜100 mm^3 tumors for E0771, large ˜200 mm^3 tumors for 4T1) over ˜2 weeks. To ensure that tumors in the two groups were of similar growth rates, the treatment with saline or DAL was begun in pairs of tumors with similar sizes and growth times. Tumor volumes were measured every other day until the tumors reached an average of ˜10 mm in diameter. Tumor growth was quantified with the doubling rate, and calculated by fitting an exponential growth curve to the data for tumor size versus time.
As shown in Example 3, DAL has an antivascular effect in orthotopic mammary tumors in mice. Thus, the antitumor effect of DAL was next assessed. […] The effect of DAL on the growth of orthotopic 4T1 and E0771 mammary tumors with daily treatment of DAL or saline was evaluated (FIG. 4A). 37.5 mg/kg of DAL was used for these experiments based on the pharmacokinetics results as well as in vitro and in vivo data. […]

Rac1 = target: T1, Rac1 (Homo sapiens, UniProt P63000); assay: Rac1 activation pull-down assay (PAK-PBD) in HUVECs; assay type: cell-based; conditions: various concentrations 30 minutes, VEGF stimulated
T1 construct: endogenous in cells; host or cells: HUVEC
Protocol: Rac1 and cdc42 activities were measured with a Rac1 (BK035) activation assay biochem kit (Cytoskeleton) according to the manufacturer protocol. In brief, human umbilical vein endothelial cells (HUVECs) were bovine brain extract-starved for 12 hours in 1% FBS-EGM (Lonza) and pretreated with various concentrations of DAL for 30 minutes at 37° C. The HUVECs were then stimulated with VEGF at […] for 15 minutes at 37° C. After stimulation, the cells were immediately incubated on ice, washed twice with PBS, and lysed with lysis buffer. The lysates were pre-cleared and added with 15 μl of PAK-PBD beads for pull-down of activated Rac1 or cdc42. After rocking at 4° C. for 1 hour, the beads were washed once and boiled at 100° C. for 2 minutes. The protein lysates were then resolved in a 8-16% gradient gel (Invitrogen) and transferred to a PVDF membrane. Primary antibodies (anti-Rac1, 1:1000, cytoskeleton or anti-cdc42, 1:1000, cell signaling) were added to bind to the protein overnight at 4° C., followed by incubation with HRP-conjugated secondary antibodies. Protein activity was measured by the standard ECL method (Amersham).
Without wishing to be bound by theory, DAL brings about its antivascular effects by destabilizing cell adhesion through the actin cytoskeleton. […] Therefore, potential targets of DAL in signaling pathways involved in actin remodeling were evaluated. […]

Question: `CC1(C)C=CC2=C(O1)C(=O)c1ccccc1C2=O` [DAL, dehydro-alpha-lapachone] was tested. Which “tumor volume doubling time” value [1] did it give?
Answer: 4.77 ± 0.58 days

Question: And the Rac1 activity (Rac1)?
Answer: decreased Rac1 activity in a concentration-dependent manner
